Experimental data: ChEMBL document CHEMBL3616376, “Anti-proliferative activity of Monensin and its tertiary amide derivatives” (Bioorg Med Chem Lett, 2015)

Assays:
[1] = Antiproliferative activity against human LoVo/DX cells; type: functional, cell-based
[2] = Selectivity index, ratio of IC50 for mouse BALB/3T3 cells to IC50 for human MV4-11 cells; type: functional
[3] = Selectivity index, ratio of IC50 for mouse BALB/3T3 cells to IC50 for human LoVo cells; type: functional
BALB/3T3 = assay: Cytotoxicity against mouse BALB/3T3 cells; type: cell-based
LoVo [4] = assay: Antiproliferative activity against human LoVo cells; type: functional, cell-based
[5] = Selectivity index, ratio of IC50 for mouse BALB/3T3 cells to IC50 for human LoVo/Dx cells; type: functional
MV4-11 = assay: Antiproliferative activity against human MV4-11 cells; type: functional, cell-based
LoVo [6] = assay: Resistance index, ratio of IC50 for human LoVo/DX cells to IC50 for human LoVo cells; type: functional

Structure (SMILES) | IC50 (LoVo [4]) [µM] | IC50 (MV4-11) [µM] | IC50 [1] [µM] | Ratio IC50 [2] | Ratio IC50 [3] | IC50 (BALB/3T3) [µM] | Ratio IC50 [5] | Ratio IC50 (LoVo [6])
CC[C@@]1([C@@H]2O[C@@H]([C@H]3O[C@@](O)(CO)[C@H](C)C[C@@H]3C)C[C@@H]2C)CC[C@H]([C@]2(C)CC[C@]3(C[C@H](O)[C@@H](C)[C@@H]([C@@H](C)[C@@H](OC)[C@H](C)C(=O)N4CCNCC4)O3)O2)O1 | 8.65 | 3.24 | 20.7 | 10.19 | 3.82 | 33 | 1.6 | 2.39
CC[C@@]1([C@@H]2O[C@@H]([C@H]3O[C@@](O)(CO)[C@H](C)C[C@@H]3C)C[C@@H]2C)CC[C@H]([C@]2(C)CC[C@]3(C[C@H](O)[C@@H](C)[C@@H]([C@@H](C)[C@@H](OC)[C@H](C)C(=O)O)O3)O2)O1 [MONENSIN] | 1.09 | 0.09 | 0.61 | 232.11 | 19.17 | 20.9 | 34.25 | 0.56
CC[C@@]1([C@@H]2O[C@@H]([C@H]3O[C@@](O)(CO)[C@H](C)C[C@@H]3C)C[C@@H]2C)CC[C@H]([C@]2(C)CC[C@]3(C[C@H](O)[C@@H](C)[C@@H]([C@@H](C)[C@@H](OC)[C@H](C)C(=O)N4CCOCC4)O3)O2)O1 | 19.8 | 2.51 | 4.86 | 19.78 | 2.5 | 49.6 | 10.21 | 0.25
CCCN(CCC)C(=O)[C@@H](C)[C@H](OC)[C@H](C)[C@H]1O[C@@]2(CC[C@@](C)([C@H]3CC[C@@](CC)([C@@H]4O[C@@H]([C@H]5O[C@@](O)(CO)[C@H](C)C[C@@H]5C)C[C@@H]4C)O3)O2)C[C@H](O)[C@H]1C | 4.35 | 5.96 | 6.09 | 1.3 | 1.78 | 7.73 | 1.27 | 1.4
CC[C@@]1([C@@H]2O[C@@H]([C@H]3O[C@@](O)(CO)[C@H](C)C[C@@H]3C)C[C@@H]2C)CC[C@H]([C@]2(C)CC[C@]3(C[C@H](O)[C@@H](C)[C@@H]([C@@H](C)[C@@H](OC)[C@H](C)C(=O)N(CCOC)CCOC)O3)O2)O1 | 36.6 | 27.5 | 10.1 | 1.53 | 1.15 | 42 | 4.16 | 0.28

More lines, main results first:

IC50 (LoVo [4]) [µM] | IC50 (MV4-11) [µM] | Structure (SMILES) | IC50 [1] [µM] | Ratio IC50 [2] | Ratio IC50 [3] | IC50 (BALB/3T3) [µM] | Ratio IC50 [5] | Ratio IC50 (LoVo [6])
0.28 |  | COc1cccc2c1C(=O)c1c(O)c3c(c(O)c1C2=O)C[C@@](O)(C(=O)CO)C[C@@H]3O[C@H]1C[C@H](N)[C@H](O)[C@H](C)O1 [DOXORUBICIN] | 6.73 |  | 1.89 | 0.53 | 0.08 | 23.62
3.71 | 3.28 | CC[C@@]1([C@@H]2O[C@@H]([C@H]3O[C@@](O)(CO)[C@H](C)C[C@@H]3C)C[C@@H]2C)CC[C@H]([C@]2(C)CC[C@]3(C[C@H](O)[C@@H](C)[C@@H]([C@@H](C)[C@@H](OC)[C@H](C)C(=O)N(Cc4ccccc4)Cc4ccccc4)O3)O2)O1 | 3.78 | 3.99 | 3.53 | 13.1 | 3.46 | 1.02
10.7 | 5.44 | CCN(CC)C(=O)[C@@H](C)[C@H](OC)[C@H](C)[C@H]1O[C@@]2(CC[C@@](C)([C@H]3CC[C@@](CC)([C@@H]4O[C@@H]([C@H]5O[C@@](O)(CO)[C@H](C)C[C@@H]5C)C[C@@H]4C)O3)O2)C[C@H](O)[C@H]1C | 4.63 | 5.17 | 2.63 | 28.1 | 6.07 | 0.43
